Patent US9963456B2, “Pyrrolopyrimidine compound or salt thereof and compositions containing the pyrrolopyrimidine compound or salt thereof” (TAIHO PHARMACEUTICAL CO., LTD., priority 2014, dated 2018)

How the values were obtained:
[1] = system: Human colon cancer HCT-116 cell lines; assay: Antitumor effect on tumor cells transplanted into mice 1; assay type: in vivo
Description: Human colon cancer HCT-116 cell lines were washed in PBS and suspended at a concentration of 4×10^7 cells/mL. 0.1 mL of this cell suspension was subcutaneously implanted in the right chest of 6-week-old BALB/cAJcl-nu/nu mice (produced by CLEA Japan, Inc.).
(§1) The length and the width of the implanted tumor and the body weight were measured. The tumor volume (TV) was calculated using the following equation (equation D). TV(mm3)=(length×width^2)/2, wherein the unit of length and width is mm (equation D).
When the TV reached 100 to 300 mm3, the animals were assigned to each group in accordance with a stratified randomization procedure. The day was considered day 1, the TV on the day was considered TV1, and the body weight on the day was considered BW1.
A required amount of the test compound was weighed to prepare an administration solution.
(§2) Thereafter, the length and the width of the tumor and the body weight (BWn) on day n were measured over time in the same manner, and the TVn of each mouse was calculated. Further, the relative tumor volume (RTVn) was calculated based on the TVn of each mouse using the following equation (equation E); the treatment/control (T/C) value (%) was calculated based on the mean RTVn of each drug administration group using the following equation (equation F); and the weight change rate (BWCn) was calculated using the following equation (equation G). RTVn=TVn/TV1 (equation E) T/Cn(%)=(mean RTV of each drug administration group on the last day of the test)/(mean RTV of the control group on the last day of the test)×100 (equation F) BWCn (%)=(BWn−BW1)/BW1×100 (equation G) FIGS. 1 and 2, and Table 21 below show the results.

carbonic anhydrase II = carbonic anhydrase II (Homo sapiens (Human), UniProt P00918); assay: Carbonic anhydrase II enzyme activity inhibition (4-NPA esterase activity); assay type: biochemical; conditions: 4-nitrophenyl acetate esterase activity, absorbance at 405 nm
[2] = molecular target: NAE (heterodimer of APPBP1 and UBA3) (Homo sapiens (Human), UniProt Q8TBC4); assay: Nedd8 conjugation inhibitory activity (AlphaScreen assay); assay type: biochemical; conditions: purified NAE, GST-UBC12, Biotin-Nedd8, ATP
Chain of NAE (heterodimer of APPBP1 and UBA3) (Q8TBC4 whole entry): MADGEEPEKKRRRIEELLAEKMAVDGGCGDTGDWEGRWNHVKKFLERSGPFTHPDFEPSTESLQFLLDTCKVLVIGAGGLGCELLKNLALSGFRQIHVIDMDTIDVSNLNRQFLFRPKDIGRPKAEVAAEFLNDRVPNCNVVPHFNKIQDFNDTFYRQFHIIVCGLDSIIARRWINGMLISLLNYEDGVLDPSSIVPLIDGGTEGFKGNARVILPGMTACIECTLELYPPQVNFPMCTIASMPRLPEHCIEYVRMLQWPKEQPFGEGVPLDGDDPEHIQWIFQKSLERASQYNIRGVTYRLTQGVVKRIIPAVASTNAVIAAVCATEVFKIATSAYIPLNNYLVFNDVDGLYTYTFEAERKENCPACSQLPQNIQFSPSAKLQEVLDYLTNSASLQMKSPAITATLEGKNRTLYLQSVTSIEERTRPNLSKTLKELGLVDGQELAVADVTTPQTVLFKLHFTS
Chain of NAE (heterodimer of APPBP1 and UBA3) (Q13564 whole entry partner): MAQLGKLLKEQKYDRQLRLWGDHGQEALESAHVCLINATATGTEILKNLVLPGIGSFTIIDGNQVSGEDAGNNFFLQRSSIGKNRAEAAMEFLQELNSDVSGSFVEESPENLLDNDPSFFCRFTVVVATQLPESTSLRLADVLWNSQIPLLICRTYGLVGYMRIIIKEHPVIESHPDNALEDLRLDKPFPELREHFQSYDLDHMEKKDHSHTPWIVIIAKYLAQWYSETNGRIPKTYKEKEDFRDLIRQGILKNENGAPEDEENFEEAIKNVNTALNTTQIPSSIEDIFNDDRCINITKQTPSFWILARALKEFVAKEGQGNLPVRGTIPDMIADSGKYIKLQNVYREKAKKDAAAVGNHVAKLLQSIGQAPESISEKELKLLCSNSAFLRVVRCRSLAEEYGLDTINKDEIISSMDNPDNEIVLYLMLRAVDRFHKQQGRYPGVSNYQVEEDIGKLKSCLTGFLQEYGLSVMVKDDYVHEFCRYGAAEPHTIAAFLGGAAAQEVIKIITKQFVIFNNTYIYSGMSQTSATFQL

[3] = system: human acute lymphoblastic leukemia (ALL) CCRF-CEM cell lines; assay: Antitumor effect on tumor cells transplanted into mice 3; assay type: in vivo; conditions: for T/C15 / RTV comparison with the Comparative Example / RTV comparison with the control on day 15 / BWC15 Mean ± SD: CCRF-CEM xenograft in nude mice; for T/C15 / BWC15 Mean ± SD: 50 mg/kg/day intravenous; for T/C15: administration days 1, 8, day 15; for RTV comparison with the Comparative Example / RTV comparison with the control on day 15: compound hydrochlorides intravenously, Dunnett's test; for BWC15 Mean ± SD: body weight change rate, days 1, 8, day 15; for change of the body weight compared with the control: CCRF-CEM xenograft mice
Description: as §1, §2
The tumor growth inhibitory effects on human tumors were evaluated as in Test Example 5, except that the compound hydrochloride obtained in Example 122, the compound hydrochloride (Example 64), and human acute lymphoblastic leukemia (ALL) CCRF-CEM cell lines were used, and the animals were assigned to each group in accordance with a stratified randomization procedure when the TV reached 140 to 380 mm3.
At this time, the cell lines were washed in PBS, and suspended in 50% PBS and 50% Matrigel basement membrane matrix (#356237; produced by BD Biosciences) at a concentration of 1×10^8 cells/mL. 0.1 mL of this cell suspension was subcutaneously implanted to the right chest of 6-week-old BALB/cAJcl-nu/nu mice (nude mice) (produced by CLEA Japan, Inc.). The compound hydrochloride (Example 122) was intravenously administered in an amount of 5 mL per 1 kg of body weight on days 1 and 8, and the compound hydrochloride (Example 133) was intravenously administered in an amount of 5 mL per 1 kg of body weight on days 1 and 8.

For Nc1ncnc2c1c(C#Cc1c(F)cccc1F)cn2[C@@H]1O[C@H](CNS(N)(=O)=O)[C@@H](O)[C@H]1O [Example 1, 4-Amino-5-[2-(2,6-difluorophenyl)ethynyl]-7-[(2R,3R,4S,5R)-3,4-dihydroxy-5-[(sulfamoylamino)methyl]tetrahydrofuran-2-yl]pyrrolo[2,3-d]pyrimidine], the “T/C15 (%)” value ([1]; HCT-116 s.c. in BALB/cAJcl-nu/nu mice, 50 mg/kg/day intravenously on days 1, 4, 8, 11, day 15) was 23%, the “change of the body weight compared with the control” value (from here on “change of the body weight”) ([1]; HCT-116 xenograft mice) was “within an acceptable degree” and the “RTV comparison with the Comparative Example” value ([1]; HCT-116 xenograft, Aspin-Welch's t-test) was “significantly lower than that of the Comparative Example”. For the same molecule, the “RTV15 comparison with the control” value ([1]; HCT-116 xenograft, Dunnett's test) was “significantly lower than that of the control” and the “BWC15 (%) Mean ± SD” value ([1]; body weight change, 50 mg/kg/day intravenously on days 1, 4, 8, 11, day 15) was −11.8 ± 4.7%.

With CNc1cc(F)c(C#Cc2cn([C@@H]3O[C@H](CNS(N)(=O)=O)[C@@H](O)[C@H]3O)c3ncnc(N)c23)c(F)c1 [Example 25, 4-Amino-5-[2-[2,6-difluoro-4-(methylamino)phenyl]ethynyl]-7-[(2R,3R,4S,5R)-3,4-dihydroxy-5-[(sulfamoylamino)methyl]tetrahydrofuran-2-yl]pyrrolo[2,3-d]pyrimidine] the IC50 (carbonic anhydrase II) was > 1 µM and the IC50 [2] was 0.0048 µM.

With Nc1ncnc2c1c(C#Cc1c(F)cc(N3CC[C@@H](F)C3)cc1F)cn2[C@@H]1O[C@H](CNS(N)(=O)=O)[C@@H](O)[C@H]1O [Example 29, 4-Amino-5-[2-[2,6-difluoro-4-[(3R)-3-fluoropyrrolidin-1-yl]phenyl]ethynyl]-7-[(2R,3R,4S,5R)-3,4-dihydroxy-5-[(sulfamoylamino)methyl]tetrahydrofuran-2-yl]pyrrolo[2,3-d]pyrimidine] the IC50 (carbonic anhydrase II) was > 1 µM and the IC50 [2] was 0.0071 µM.

In the case of Nc1ncnc2c1c(C#Cc1c(F)cc(N3CCC3)cc1F)cn2[C@@H]1O[C@H](CNS(N)(=O)=O)[C@@H](O)[C@H]1O [Example 43, 4-amino-5-[2-[4-(azetidin-1-yl)-2,6-difluoro-phenyl]ethynyl]-7-[(2R,3R,4S,5R)-3,4-dihydroxy-5-[(sulfamoylamino)methyl]tetrahydrofuran-2-yl]pyrrolo[2,3-d]pyrimidine], the IC50 (carbonic anhydrase II) was > 1 µM and the IC50 [2] was 0.0076 µM.

In the case of Nc1ncnc2c1c(C#Cc1ccccc1F)cn2[C@@H]1O[C@H](CNS(N)(=O)=O)[C@@H](O)[C@H]1O [Example 46, 4-Amino-7-[(2R,3R,4S,5R)-3,4-dihydroxy-5-[(sulfamoylamino)methyl]tetrahydrofuran-2-yl]-5-[2-(2-fluorophenyl)ethynyl]pyrrolo[2,3-d]pyrimidine], the IC50 (carbonic anhydrase II) was > 1 µM and the IC50 [2] was 0.013 µM.

For COc1ccccc1C#Cc1cn([C@@H]2O[C@H](CNS(N)(=O)=O)[C@@H](O)[C@H]2O)c2ncnc(N)c12 [Example 47, 4-Amino-7-[(2R,3R,4S,5R)-3,4-dihydroxy-5-[(sulfamoylamino)methyl]tetrahydrofuran-2-yl]-5-[2-(2-methoxyphenyl)ethynyl]pyrrolo[2,3-d]pyrimidine], the IC50 (carbonic anhydrase II) was > 1 µM and the IC50 [2] was 0.0093 µM.

For Nc1ncnc2c1c(C#Cc1ccc(OCc3ccccc3)cn1)cn2[C@@H]1O[C@H](CNS(N)(=O)=O)[C@@H](O)[C@H]1O [Example 52, 4-Amino-5-[2-(5-benzyloxy-2-pyridyl)ethynyl]-7-[(2R,3R,4S,5R)-3,4-dihydroxy-5-[(sulfamoylamino)methyl]tetrahydrofuran-2-yl]pyrrolo[2,3-d]pyrimidine], the IC50 (carbonic anhydrase II) was > 1 µM and the IC50 [2] was 0.008 µM.

In the case of CCCOc1cccc(F)c1C#Cc1cn([C@@H]2O[C@H](CNS(N)(=O)=O)[C@@H](O)[C@H]2O)c2ncnc(N)c12 [Example 60, 4-Amino-7-[(2R,3R,4S,5R)-3,4-dihydroxy-5-[(sulfamoylamino)methyl]tetrahydrofuran-2-yl]-5-[2-(2-fluoro-6-propoxy-phenyl)ethynyl]pyrrolo[2,3-d]pyrimidine], the IC50 (carbonic anhydrase II) was > 1 µM and the IC50 [2] was 0.0085 µM.

In the case of CN1CCOc2c1ccc(F)c2C#Cc1cn([C@@H]2O[C@H](CNS(N)(=O)=O)[C@@H](O)[C@H]2O)c2ncnc(N)c12 [Example 64, 8-[2-[4-Amino-7-[(2R,3R,4S,5R)-3,4-dihydroxy-5-[(sulfamoylamino)methyl]tetrahydrofuran-2-yl]pyrrolo[2,3-d]pyrimidin-5-yl]ethynyl]-7-fluoro-4-methyl-2,3-dihydro-1,4-benzoxazine], the T/C15 [3] was 8%, the “RTV comparison with the Comparative Example” value [3] was “significantly lower than that of the Comparative Example” and the “RTV comparison with the control on day 15” value (from here on “RTV comparison … on day 15”) [3] was “significantly lower than that of the control”. For the same molecule, the “BWC15 Mean ± SD” value [3] was 4.1 ± 1.6%, the IC50 (carbonic anhydrase II) was > 1 µM and the IC50 [2] was 0.0094 µM.

CCSc1cccc(F)c1C#Cc1cn([C@@H]2O[C@H](CNS(N)(=O)=O)[C@@H](O)[C@H]2O)c2ncnc(N)c12 [Example 66, 4-Amino-7-[(2R,3R,4S,5R)-3,4-dihydroxy-5-[(sulfamoylamino)methyl]tetrahydrofuran-2-yl]-5-[2-(2-ethylsulfanyl-6-fluoro-phenyl)ethynyl]pyrrolo[2,3-d]pyrimidine] was tested, and the IC50 (carbonic anhydrase II) was > 1 µM and the IC50 [2] was 0.0071 µM.

In the case of Nc1ncnc2c1c(C#Cc1c(F)cc(N3CC[C@@H](O)C3)cc1F)cn2[C@@H]1C[C@H](CNS(N)(=O)=O)[C@@H](O)[C@H]1O [Example 120, 4-Amino-5-[2-[2,6-difluoro-4-[(3R)-3-hydroxypyrrolidin-1-yl]phenyl]ethynyl]-7-[(1R,2S,3R,4R)-2,3-dihydroxy-4-[(sulfamoylamino)methyl]cyclopentyl]pyrrolo[2,3-d]pyrimidine], the “RTV comparison … on day 15” value [3] was “significantly lower than that of the control”, the “change of the body weight” value [3] was “almost the same as that of the control” and the IC50 (carbonic anhydrase II) was > 1 µM. The IC50 [2] was 0.0043 µM.

In the case of CN1CCOc2c1ccc(F)c2C#Cc1cn([C@@H]2C[C@H](CNS(N)(=O)=O)[C@@H](O)[C@H]2O)c2ncnc(N)c12 [Example 122, 8-[2-[4-amino-7-[(1R,2S,3R,4R)-2,3-dihydroxy-4-[(sulfamoylamino)methyl]cyclopentyl]pyrrolo[2,3-d]pyrimidin-5-yl]ethynyl]-7-fluoro-4-methyl-2,3-dihydro-1,4-benzoxazine], the T/C15 [3] was 6%, the “RTV comparison with the Comparative Example” value [3] was “significantly lower than that of the Comparative Example” and the “RTV comparison … on day 15” value [3] was “significantly lower than that of the control”. The “BWC15 Mean ± SD” value [3] was 6.0 ± 4.5%, the IC50 (carbonic anhydrase II) was > 1 µM and the IC50 [2] was 0.02 µM.

For Nc1ncnc2c1c(C#Cc1cccc3ccccc13)cn2[C@@H]1O[C@H](COS(N)(=O)=O)[C@@H](O)[C@H]1O [Example 133, [(2R,3S,4R,5R)-5-[4-Amino-5-[2-(1-naphthyl)ethynyl]pyrrolo[2,3-d]pyrimidin-7-yl]-3,4-dihydroxy-tetrahydrofuran-2-yl]methyl sulfamate], the “RTV comparison … on day 15” value [3] was “significantly lower than that of the control”, the “change of the body weight” value [3] was “almost the same as that of the control” and the IC50 [2] was 0.025 µM.

For CCS(=O)(=O)c1cccc(F)c1C#Cc1cn([C@H]2C[C@H](O)[C@@H](CNS(N)(=O)=O)O2)c2ncnc(N)c12 [Example 143, 4-Amino-5-[2-(2-ethylsulfonyl-6-fluoro-phenyl)ethynyl]-7-[(2R,4S,5R)-4-hydroxy-5-[(sulfamoylamino)methyl]tetrahydrofuran-2-yl]pyrrolo[2,3-d]pyrimidine], the IC50 (carbonic anhydrase II) was > 1 µM and the IC50 [2] was 0.024 µM.
